Source: the supplement of paper PMC5908809

What was measured:
[1] = test system: normal NK cells expanded with K562-aAPC; assay: percent inhibition of viability; higher = more inhibition; settings: 72 h, IL-2 2.5 ng/mL
Method: (§1)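 Drug sensitivity and resistance testing on K562-aAPC-expanded normal NK cells: 5 concentrations (10-fold steps over a 10,000-fold range), 72 h at 37 °C, viability by CellTiter-Glo normalised to DMSO and benzethonium chloride controls; DSS from the fitted curve.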

[2] = test system: DERL-7 (IL-2 2.5 ng/mL); assay: as above; settings: 72 h
[3] = test system: IMC-1 (IL-2 20 ng/mL); assay: as above; settings: 72 h
[4] = test system: KAI3 (IL-2 2.5 ng/mL); assay: as above; settings: 72 h
[5] = test system: KHYG-1 (IL-2 2.5 ng/mL); assay: as above; settings: 72 h
[6] = test system: NK-92 (IL-2 2.5 ng/mL); assay: as above; settings: 72 h
[7] = test system: NK-YS (IL-2 2.5 ng/mL); assay: as above; settings: 72 h
[8] = test system: NKL (IL-2 2.5 ng/mL); assay: as above; settings: 72 h
[9] = test system: SNK-6 (IL-2 2.5 ng/mL); assay: as above; settings: 72 h
[10] = test system: YT (IL-2 2.5 ng/mL); assay: as above; settings: 72 h
[11] = test system: normal primary NK cells, pool 1 (3 donors) (IL-2 2.5 ng/mL); assay: as above; settings: 72 h
[12] = test system: normal primary NK cells, pool 1 (3 donors), resting (IL-2 0 ng/mL); assay: as above; settings: 72 h
[13] = test system: normal primary NK cells, pool 2 (3 donors) (IL-2 2.5 ng/mL); assay: as above; settings: 72 h
[14] = test system: normal primary NK cells, pool 3 (3 donors) (IL-2 2.5 ng/mL); assay: as above; settings: 72 h
[15] = test system: normal NK cells expanded with K562-aAPC; assay: drug sensitivity score (DSS) (DSS units); higher = more sensitive; extreme values may be limits of the assay; settings: 72 h; IL-2 2.5 ng/mL
Method: as §1

[16] = test system: DERL-7 (IL-2 2.5 ng/mL); assay: as above; settings: 72 h
[17] = test system: IMC-1 (IL-2 20 ng/mL); assay: as above; settings: 72 h
[18] = test system: KAI3 (IL-2 2.5 ng/mL); assay: as above; settings: 72 h
[19] = test system: KHYG-1 (IL-2 2.5 ng/mL); assay: as above; settings: 72 h
[20] = test system: NK-92 (IL-2 2.5 ng/mL); assay: as above; settings: 72 h
[21] = test system: NK-YS (IL-2 2.5 ng/mL); assay: as above; settings: 72 h
[22] = test system: NKL (IL-2 2.5 ng/mL); assay: as above; settings: 72 h
[23] = test system: SNK-6 (IL-2 2.5 ng/mL); assay: as above; settings: 72 h
[24] = test system: YT (IL-2 2.5 ng/mL); assay: as above; settings: 72 h
[25] = test system: normal primary NK cells, pool 1 (3 donors) (IL-2 2.5 ng/mL); assay: as above; settings: 72 h
[26] = test system: normal primary NK cells, pool 1 (3 donors), resting (IL-2 0 ng/mL); assay: as above; settings: 72 h
[27] = test system: normal primary NK cells, pool 2 (3 donors) (IL-2 2.5 ng/mL); assay: as above; settings: 72 h
[28] = test system: normal primary NK cells, pool 3 (3 donors) (IL-2 2.5 ng/mL); assay: as above; settings: 72 h

C=CC(=O)Nc1cc2c(Nc3ccc(F)c(Cl)c3)ncnc2cc1OCCCN1CCOCC1 [Canertinib] (max concentration tested 10000 nM)
percent inhibition of viability [%]
Settings	1 nM	10 nM	100 nM	1000 nM	10000 nM
[1]	-1.69	-1.95	-1.57	28.3	100
[2]	-1.22	3.31	7.19	46.1	101
[3]	-13.9	-4.18	-9.88	-11.9	99.7
[4]	-7.79	-2.37	3.26	43.7	104
[5]	-9.72	-6.52	-7.64	4.13	105
[6]	3.42	2.68	6.81	39.8	104
[7]	-6.82	-1.19	-0.2	14.6	103
[8]	-12.1	-11.6	-5.5	34.5	106
[9]	-13	-20.2	-15.9	2.62	99.5
[10]	-5.49	-3.57	3.25	14.8	103
[11]	-5.89	6.82	13.3	76.1	99.2
[12]	2.65	15.7	18.4	74.2	97
[13]	-7.41	-1.65	8.39	58.4	96.8
[14]	-4.75	1.46	0.7	34.3	99.2

Settings	drug sensitivity score
[15]	9.72
[16]	10.9
[17]	4.78
[18]	11.2
[19]	6.47
[20]	10.8
[21]	8.03
[22]	10.3
[23]	5.87
[24]	8.07
[25]	15.9
[26]	16.2
[27]	12.6
[28]	10.3
